According to publication PMC11218446, “Antibacterial efficacy and membrane mechanism of action of the Serratia-derived non-ionic lipopeptide, serrawettin W2-FL10” (Microbiology Spectrum, 2024):
Several values for one entry are separate records, joined by “and”; a condition that tells them apart may be missing. Identical values can stand only once.

Key:
S. aureus ATCC 25923 = test: Broth microdilution assay (OD 600 nm); format: cell-based, Staphylococcus aureus
Protocol: (§1) Serrawettin W2-FL10 (95% pure) was tested for antibacterial activity using a broth microdilution susceptibility assay ([6]), with melittin included as an antibiotic control. The serrawettin W2-FL10 was prepared in 70% MeCN to 1.00 mg/mL, from which aliquots were prepared using 70% MeCN to a concentration of 50 µg/mL or 500 µg/mL, while aliquots of melittin were prepared using analytical quality H2O to 128 µg/mL. Fifty microliters of the respective W2-FL10 aliquots or melittin were dispensed into a clear 96-well plate and a microdilution (in 70% MeCN for W2-FL10 or analytical quality H2O for melittin) was performed within the plate. The plate was air-dried to remove the solvent and placed in a desiccator with chloroform for 20 min for sterilization.
(§2) All the cultures (inoculated into 5 mL MHB, or 5 mL TSB for Listeria and Enterococcus strains) were incubated at 37°C to reach an optical density (OD) of 0.4 at 600 nm (∼10^7 CFU/mL). A 1:20 dilution of the test strain (final concentration of ∼10^5 CFU/mL) was prepared and 100 µL was dispensed into each well (final concentration of W2-FL10 at 1.5–125 µg/mL and melittin at 2–32 µg/mL). Sterile broth and the OD-adjusted inoculum were included as positive controls, while sterile broth (no inoculum) was included as a negative control. The 96-well plate was incubated for 18 h at 37°C. All the tests were performed in triplicate, with independent duplicates. Following incubation, the absorbance was measured using a microtiter plate reader at 600 nm. The 50% growth inhibition concentration (IC50) was determined using GraphPad Prism version 5 for Windows [GraphPad Software, San Diego, USA (www.graphpad.com)]. A sigmodal curve with variable slope was fitted to each set of dose-repose data according to Rautenbach et al. ([17]) using equation (1):
(§3) (1) Y=bottom+(top−bottom)/1+10^logIC50×Activity slope
(§4) The “top” and “bottom” are the maximum and minimum inhibition responses, respectively, for a particular set of dose-response data, while the activity slope is related to the Hill slope of a sigmoidal binding curve ([16]). […] The MIC value was determined for each set of dose-response data as the lowest concentration, resulting in ≥90% inhibition of the target cell growth. In addition to the MIC and IC50 inhibition parameters, an inhibition concentration factor (ICF), was calculated as outlined in Rautenbach et al. ([17]). The ICF is indicative of the concentration increase from the highest concentration where no activity is observed to the MIC of a compound.

S. aureus RN4220 = test: Broth microdilution assay (OD 600 nm); format: cell-based, Staphylococcus aureus
Protocol: as §1, §2, §3, §4

[1] = test system: S. aureus Xen 30 (MRSA Xen 30); test: Broth microdilution assay (OD 600 nm); format: cell-based, Staphylococcus aureus
Protocol: as §1, §2, §3, §4

[2] = test system: L. monocytogenes ATCC 13932; test: Broth microdilution assay (OD 600 nm); format: cell-based, Listeria monocytogenes
Protocol: as §1, §2, §3, §4

E. faecium S1 = test: Broth microdilution assay (OD 600 nm); format: cell-based, Enterococcus faecium
Protocol: as §1, §2, §3, §4

three S. aureus strains = test: Time-kill kinetics, summary; format: cell-based, Staphylococcus aureus; settings: at MIC
Protocol: Time-kill assays were performed for W2-FL10 against S. aureus ATCC 25923, S. aureus RN4220, and MRSA Xen 30 to determine the bacteriostatic (suppresses growth) or bactericidal (>3 log reduction in CFUs) activity of the compound, allowing for the determination of cell survival percentage per minute ([19]).
To determine the kill rate of the lipopeptide, exponentially growing S. aureus strains were prepared as described in the “Antibacterial activity: broth microdilution assay” section (OD600 = 0.4, ~10^7 CFU/mL; 1:20 dilution was conducted to obtain ~10^5 CFU/mL) ([24], [55]). Thereafter, 200 µL of the bacterial suspension (in MHB) was dispensed into a clear 96-well plate containing 12.5 or 25 µg/mL of W2-FL10, and plates were incubated at 37°C. Aliquots of 20 µL were collected at different time intervals (0, 1, 2, 4, 8, and 24 h), diluted in 180 µL PBS in a clear 96-well plate (from 10^−2 to 10^−8), and 100 µL of the respective dilution was spread onto LB agar plates. Undiluted samples of 20 µL were spot-plated onto LB agar to confirm the absence of cells at 8 and/or 24 h. The LB agar plates were then incubated overnight at 37°C and the CFU/mL was determined. A positive control of bacterial cells without peptide and a negative control with only LB were included. All the tests were performed in triplicate, with independent duplicates. […]

[3] = Lipophilicity, miniaturized shake-flask log D; format: physicochemical; settings: 96-well, 1-octanol/phosphate buffer pH 7.4, shaken 2 h at 25°C, HPLC-UV
Protocol: The lipophilicity of the compound was measured using a miniaturized shake-flask method, in 96-well plate format ([48]). Briefly, equal volumes of 1-octanol and phosphate buffer at pH 7.4 were added to each compound in a deep well plate. The plate was shaken vigorously for 2 h at 25°C. The phases were then carefully separated and transferred to another plate. Analysis was performed by HPLC-UV and log D values were determined from the peak areas of the compound in octanol and buffer phases.

[4] = 50% growth inhibition, sigmoidal curve fit, n = 3
[5] = inhibition concentration factor
[6] = ≥90% growth inhibition, OD 600 nm, MHB, 18 h 37°C
[7] = ≥90% growth inhibition, OD 600 nm, TSB, 18 h 37°C

SMILES: CCCCCCCC1CC(=O)N[C@H](CC(C)C)C(=O)N[C@@H](CO)C(=O)N[C@@H]([C@@H](C)O)C(=O)N[C@H](Cc2ccccc2)C(=O)N[C@@H](CC(C)C)C(=O)O1 (stereo partly shown) [W2-FL10, serrawettin W2-FL10]
- IC50 ± SD (S. aureus ATCC 25923; [4]): 5.5 ± 0.3 (3) µg/mL
- Selectivity index (S. aureus ATCC 25923; LC50 (CHO)/IC50): 5.3
- ICF (MIC/IC50)^2 (S. aureus ATCC 25923; [5]): 5.2
- MIC (S. aureus ATCC 25923; [6]): 12.5 μg/mL and 12.5 (17.1) μg/mL
- IC50 ± SD (S. aureus RN4220; [4]): 5.7 ± 0.6 (3) µg/mL
- Selectivity index (S. aureus RN4220; LC50 (CHO)/IC50): 5.1
- ICF (MIC/IC50)^2 (S. aureus RN4220; [5]): 4.9
- MIC (S. aureus RN4220; [6]): 12.5 μg/mL and 12.5 (17.1) μg/mL
- IC50 ± SD [1, 4]: 5.7 ± 0.6 (3) µg/mL
- Selectivity index ([1]; LC50 (CHO)/IC50): 5.1
- ICF (MIC/IC50)^2 [1, 5]: 4.8
- MIC [1, 6]: 12.5 μg/mL and 12.5 (17.1) μg/mL
- IC50 ± SD [2, 4]: 3.8 ± 0.2 (3) µg/mL
- Selectivity index ([2]; LC50 (CHO)/IC50): 7.6
- ICF (MIC/IC50)^2 [2, 5]: 2.7
- MIC [2, 7]: 6.3 μg/mL and 6.3 (8.5) μg/mL
- IC50 ± SD (E. faecium S1; [4]): 5.4 ± 0.1 (3) µg/mL
- Selectivity index (E. faecium S1; LC50 (CHO)/IC50): 5.4
- ICF (MIC/IC50)^2 (E. faecium S1; [5]): 5.9
- MIC (E. faecium S1; [7]): 12.5 μg/mL and 12.5 (17.1) μg/mL
- time within which >90% bactericidal action occurred (three S. aureus strains): 4 to 8 h
- logD at 2 h [3]: 2.5
